Assay results from article PMC6431176 (Proceedings of the National Academy of Sciences of the …, 2019).

Molecular target: T1, Stl1 (Saccharomyces cerevisiae, UniProt P39932)
T1 sequence (P39932 1-569): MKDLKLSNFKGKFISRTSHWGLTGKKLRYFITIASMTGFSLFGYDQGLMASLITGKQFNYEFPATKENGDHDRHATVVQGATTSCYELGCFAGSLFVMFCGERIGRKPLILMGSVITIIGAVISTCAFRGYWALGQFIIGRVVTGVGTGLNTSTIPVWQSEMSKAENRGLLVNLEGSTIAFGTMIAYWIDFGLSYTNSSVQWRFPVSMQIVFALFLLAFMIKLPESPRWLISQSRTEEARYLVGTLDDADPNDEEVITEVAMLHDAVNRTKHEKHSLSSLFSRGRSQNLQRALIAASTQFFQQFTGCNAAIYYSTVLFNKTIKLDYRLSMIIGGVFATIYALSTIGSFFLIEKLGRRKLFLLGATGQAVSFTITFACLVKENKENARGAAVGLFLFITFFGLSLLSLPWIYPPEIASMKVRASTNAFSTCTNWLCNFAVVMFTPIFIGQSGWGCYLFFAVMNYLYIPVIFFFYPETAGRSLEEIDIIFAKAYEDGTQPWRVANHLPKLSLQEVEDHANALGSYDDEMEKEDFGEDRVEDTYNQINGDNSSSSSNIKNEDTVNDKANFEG
Experiment: […]-glycerol accumulation in S. cerevisiae
Assay type: cell-based
Conditions: labelled compound; 1 mM, Tris/citrate pH 5.0, 30 °C

In the case of OCC(O)CO [glycerol], the “14C-glycerol accumulation in S. cerevisiae” value is reported as “higher uptake rate of glycerol by the Stl1 transporter compared with the HGT-1 transporter”.
